Data published in article PMC5218480 (PLoS ONE, 2017).

Tested on: MV-4-11 cells
Assay: Gene expression microarray analysis (Affymetrix PrimeView) and GSEA
Format: cell-based, human
Parameters: RFU PODN (11730768_x_at) / Fold change /veh PODN (11730768_x_at) / RFU LINC00158 (11744669_a_at) / Fold change /veh LINC00158 (11744669_a_at) / RFU DUSP10 (11751237_a_at) / Fold change /veh DUSP10 (11751237_a_at) / RFU ID3 (11757404_x_at) / Fold change /veh ID3 (11757404_x_at) / RFU PLEKHG5 (11737974_s_at) / Fold change /veh PLEKHG5 (11737974_s_at) / RFU LRRC4B (11730491_at) / Fold change /veh LRRC4B (11730491_at) / RFU GIMAP4 (11747438_a_at) / Fold change /veh GIMAP4 (11747438_a_at) / RFU KRT8 (11758183_x_at) / Fold change /veh KRT8 (11758183_x_at) / RFU CNN1 (11734310_a_at) / Fold change /veh CNN1 (11734310_a_at) / RFU VPS37D (11726825_at) / Fold change /veh VPS37D (11726825_at) / RFU C10orf10 (11716522_x_at) / Fold change /veh C10orf10 (11716522_x_at) / RFU KIR2DL2 /// KIR2DL4 /// KIR2DL5A /// KIR2DL5B /// KIR2DS1 /// KIR2DS2 /// KIR2DS3 /// KIR2DS4 /// KIR3DL3 /// KIR3DL3 /// KIR3DS1 (11738374_at) / Fold change /veh KIR2DL2 /// KIR2DL4 /// KIR2DL5A /// KIR2DL5B /// KIR2DS1 /// KIR2DS2 /// KIR2DS3 /// KIR2DS4 /// KIR3DL3 /// KIR3DL3 /// KIR3DS1 (11738374_at) / RFU C1QL1 (11718748_at) / Fold change /veh C1QL1 (11718748_at) / RFU TMPRSS4 (11747572_a_at) / Fold change /veh TMPRSS4 (11747572_a_at) / RFU HAMP (11756126_x_at) / Fold change /veh HAMP (11756126_x_at) / RFU RNFT2 (11725882_a_at) / Fold change /veh RNFT2 (11725882_a_at) / RFU NR4A2 (11747474_a_at) / Fold change /veh NR4A2 (11747474_a_at) / RFU ABCC12 (11746883_a_at) / Fold change /veh ABCC12 (11746883_a_at) / RFU TMEM136 (11760407_x_at) / Fold change /veh TMEM136 (11760407_x_at) / RFU CLDN22 /// WWC2 (11732394_at) / Fold change /veh CLDN22 /// WWC2 (11732394_at) / RFU HLA-DPB1 (11760878_x_at) / Fold change /veh HLA-DPB1 (11760878_x_at) / RFU SPINT1 (11716480_a_at) / Fold change /veh SPINT1 (11716480_a_at) / RFU GAP43 (11754022_s_at) / Fold change /veh GAP43 (11754022_s_at) / RFU A4GNT (11735810_at) / Fold change /veh A4GNT (11735810_at) / RFU PRB3 (11715151_x_at) / Fold change /veh PRB3 (11715151_x_at) / RFU TUBB4B (11761932_at) / Fold change /veh TUBB4B (11761932_at) / RFU CAPN14 (11732068_a_at) / Fold change /veh CAPN14 (11732068_a_at) / RFU TMCC2 (11721928_a_at) / Fold change /veh TMCC2 (11721928_a_at) / RFU IRGQ (11745062_a_at) / Fold change /veh IRGQ (11745062_a_at) / RFU FAM174B (11720279_a_at) / Fold change /veh FAM174B (11720279_a_at) / RFU TMPRSS4 (11748680_a_at) / Fold change /veh TMPRSS4 (11748680_a_at) / RFU FAM212B (11763350_a_at) / Fold change /veh FAM212B (11763350_a_at) / RFU PLEKHG5 (11743358_a_at) / Fold change /veh PLEKHG5 (11743358_a_at) / RFU ZSCAN30 (11745921_a_at) / Fold change /veh ZSCAN30 (11745921_a_at) / RFU CMKLR1 (11741424_a_at) / Fold change /veh CMKLR1 (11741424_a_at) / RFU LOC101060620 /// MAPK8IP1 (11723275_at) / Fold change /veh LOC101060620 /// MAPK8IP1 (11723275_at) / RFU SPTSSB (11747773_x_at) / Fold change /veh SPTSSB (11747773_x_at) / RFU PRSS12 (11739890_at) / Fold change /veh PRSS12 (11739890_at) / RFU BIN1 (11741810_x_at) / Fold change /veh BIN1 (11741810_x_at) / RFU WNT11 (11732464_a_at) / Fold change /veh WNT11 (11732464_a_at) / RFU C10orf10 (11716521_a_at) / Fold change /veh C10orf10 (11716521_a_at) / RFU C5orf56 (11738089_at) / Fold change /veh C5orf56 (11738089_at) / RFU CYB561 (11721691_x_at) / Fold change /veh CYB561 (11721691_x_at) / RFU ANKRD19P (11752326_a_at) / Fold change /veh ANKRD19P (11752326_a_at) / RFU OR2T12 /// OR2T33 /// OR2T8 (11738714_s_at) / Fold change /veh OR2T12 /// OR2T33 /// OR2T8 (11738714_s_at) / RFU VCAN (11748164_a_at) / Fold change /veh VCAN (11748164_a_at) / RFU JSRP1 (11732532_at) / Fold change /veh JSRP1 (11732532_at) / RFU KRTAP10-11 (11738290_x_at) / Fold change /veh KRTAP10-11 (11738290_x_at) / RFU MYO3A (11730013_a_at) / Fold change /veh MYO3A (11730013_a_at) / RFU EBF3 (11725865_a_at) / Fold change /veh EBF3 (11725865_a_at) / RFU CAMK2N1 (11719241_x_at) / Fold change /veh CAMK2N1 (11719241_x_at) / RFU C5orf56 (11738088_a_at) / Fold change /veh C5orf56 (11738088_a_at) / RFU OLFML3 (11715873_a_at) / Fold change /veh OLFML3 (11715873_a_at) / RFU LOC100653217 /// NTM (11731650_a_at) / Fold change /veh LOC100653217 /// NTM (11731650_a_at) / RFU MAPK11 (11762145_a_at) / Fold change /veh MAPK11 (11762145_a_at) / RFU FIZ1 (11724087_x_at) / Fold change /veh FIZ1 (11724087_x_at) / RFU OASL (11726364_x_at) / Fold change /veh OASL (11726364_x_at) / RFU SOX15 (11748057_x_at) / Fold change /veh SOX15 (11748057_x_at) / RFU CD79A (11719716_a_at) / Fold change /veh CD79A (11719716_a_at) / RFU HIST1H1D (11736915_at) / Fold change /veh HIST1H1D (11736915_at) / RFU CASKIN2 (11723855_a_at) / Fold change /veh CASKIN2 (11723855_a_at) / RFU LOC730098 (11760151_x_at) / Fold change /veh LOC730098 (11760151_x_at) / RFU OR4N2 (11742367_at) / Fold change /veh OR4N2 (11742367_at) / RFU PRRT2 (11749266_a_at) / Fold change /veh PRRT2 (11749266_a_at) / RFU SNX32 (11753110_a_at) / Fold change /veh SNX32 (11753110_a_at) / RFU CDHR5 (11726645_a_at) / Fold change /veh CDHR5 (11726645_a_at) / RFU RCAN1 (11760418_a_at) / Fold change /veh RCAN1 (11760418_a_at) / RFU FAM167A (11723789_a_at) / Fold change /veh FAM167A (11723789_a_at) / RFU FAM26E (11764081_at) / Fold change /veh FAM26E (11764081_at) / RFU ISYNA1 (11749810_s_at) / Fold change /veh ISYNA1 (11749810_s_at) / RFU ACY1 (11761880_at) / Fold change /veh ACY1 (11761880_at) / RFU 11764098_at / Fold change /veh 11764098_at / RFU SAMD14 (11745864_x_at) / Fold change /veh SAMD14 (11745864_x_at) / RFU NPB (11741838_a_at) / Fold change /veh NPB (11741838_a_at) / RFU TMPRSS6 (11731388_a_at) / Fold change /veh TMPRSS6 (11731388_a_at) / RFU KRTAP10-2 (11738614_at) / Fold change /veh KRTAP10-2 (11738614_at) / RFU ARHGAP8 /// PRR5-ARHGAP8 (11727945_x_at) / Fold change /veh ARHGAP8 /// PRR5-ARHGAP8 (11727945_x_at) / RFU KRTAP5-7 /// NADSYN1 (11734609_at) / Fold change /veh KRTAP5-7 /// NADSYN1 (11734609_at) / RFU RASL12 (11751679_a_at) / Fold change /veh RASL12 (11751679_a_at) / RFU CDKN2B (11736163_a_at) / Fold change /veh CDKN2B (11736163_a_at) / RFU PRF1 (11729649_at) / Fold change /veh PRF1 (11729649_at) / RFU, ZNF638 /// ZNF638-IT1 / Fold change vs veh, ZNF638 /// ZNF638-IT1 / RFU, PANK3 / Fold change vs veh, PANK3 / RFU, SH3YL1 / Fold change vs veh, SH3YL1 / RFU, ZEB2 / Fold change vs veh, ZEB2 / RFU, NRIP1 / Fold change vs veh, NRIP1 / RFU, PTTG1IP / Fold change vs veh, PTTG1IP / RFU, CAPN2 / Fold change vs veh, CAPN2 / RFU, MED14 / Fold change vs veh, MED14 / RFU, SNORA58 / Fold change vs veh, SNORA58 / RFU, C1orf63 / Fold change vs veh, C1orf63 / RFU, LRRFIP1 / Fold change vs veh, LRRFIP1 / RFU, NDUFAF7 / Fold change vs veh, NDUFAF7 / RFU, SLC12A2 / Fold change vs veh, SLC12A2 / RFU, IBTK / Fold change vs veh, IBTK / RFU, ESF1 / Fold change vs veh, ESF1 / Fold change vs veh, TMEM50B / RFU, TAOK1 / Fold change vs veh, TAOK1 / RFU, ACBD3 / Fold change vs veh, ACBD3 / RFU, TMA16 / Fold change vs veh, TMA16 / RFU, RWDD3 / Fold change vs veh, RWDD3 / RFU, BCAT1 / Fold change vs veh, BCAT1 / RFU, EDEM3 / Fold change vs veh, EDEM3 / RFU, TMEM33 / Fold change vs veh, TMEM33 / RFU, WDR75 / Fold change vs veh, WDR75 / RFU, AHCTF1 / Fold change vs veh, AHCTF1 / RFU, TFRC / Fold change vs veh, TFRC / RFU, ZDHHC17 / Fold change vs veh, ZDHHC17 / RFU, NOM1 / Fold change vs veh, NOM1 / RFU, ARL8B / Fold change vs veh, ARL8B / RFU, ZBTB11 / Fold change vs veh, ZBTB11 / RFU, TAMM41 / Fold change vs veh, TAMM41 / RFU, KIAA1704 /// LOC100996395 / Fold change vs veh, KIAA1704 /// LOC100996395 / RFU, ING1 / Fold change vs veh, ING1 / RFU, TRMT61B / Fold change vs veh, TRMT61B / RFU, FUBP3 / Fold change vs veh, FUBP3 / RFU, TP53 / Fold change vs veh, TP53 / RFU, TNKS2 / Fold change vs veh, TNKS2 / RFU, ZFP14 / Fold change vs veh, ZFP14 / RFU, ACTR2 / Fold change vs veh, ACTR2 / RFU, PPP3R1 / Fold change vs veh, PPP3R1 / RFU, PIK3R1 / Fold change vs veh, PIK3R1 / RFU, HNRNPA1 / Fold change vs veh, HNRNPA1 / RFU, RNF170 / Fold change vs veh, RNF170 / RFU, ZNF28 / Fold change vs veh, ZNF28 / RFU, RNGTT / Fold change vs veh, RNGTT / RFU, OGT / Fold change vs veh, OGT / RFU, BRD1 / Fold change vs veh, BRD1 / RFU, MARS / Fold change vs veh, MARS / RFU, ZNF655 / Fold change vs veh, ZNF655 / RFU, FAHD1 / Fold change vs veh, FAHD1 / RFU, BDP1 / Fold change vs veh, BDP1 / RFU, LRRCC1 / Fold change vs veh, LRRCC1 / RFU, ARID1A / Fold change vs veh, ARID1A / RFU, ZNF146 / Fold change vs veh, ZNF146 / RFU, ZNF330 / Fold change vs veh, ZNF330 / RFU, GPN3 / Fold change vs veh, GPN3 / RFU, C9orf123 / Fold change vs veh, C9orf123 / RFU, N4BP2L2 / Fold change vs veh, N4BP2L2 / RFU, ARFIP1 / Fold change vs veh, ARFIP1 / RFU, FAM179B / Fold change vs veh, FAM179B / RFU, BCL10 / Fold change vs veh, BCL10 / RFU, UHRF1BP1L / Fold change vs veh, UHRF1BP1L / RFU, BET1 / Fold change vs veh, BET1 / RFU, CNOT2 / Fold change vs veh, CNOT2 / RFU, ZNF268 / Fold change vs veh, ZNF268 / Fold change vs veh, ZNF507 / RFU, DGCR2 / Fold change vs veh, DGCR2 / RFU, WDSUB1 / Fold change vs veh, WDSUB1 / Fold change vs veh, HSP90B1 /// MIR3652 / RFU, ADSS / Fold change vs veh, ADSS / RFU, GK / Fold change vs veh, GK / RFU, ZNF148 / Fold change vs veh, ZNF148 / RFU, TAF9 / Fold change vs veh, TAF9 / RFU, SLC1A5 / Fold change vs veh, SLC1A5 / RFU, SLMO2 / Fold change vs veh, SLMO2 / RFU, ABCC4 / Fold change vs veh, ABCC4 / RFU, LOC101060439 /// RAP1B / Fold change vs veh, LOC101060439 /// RAP1B / RFU, RFX7 / Fold change vs veh, RFX7 / RFU, GTPBP10 / Fold change vs veh, GTPBP10 / RFU, CNEP1R1 / Fold change vs veh, CNEP1R1 / RFU, BIVM-ERCC5 /// ERCC5 / Fold change vs veh, BIVM-ERCC5 /// ERCC5 / RFU, ILF3 / Fold change vs veh, ILF3 / RFU 11762660_at / Fold change /veh 11762660_at / RFU VCAN (11757783_s_at) / Fold change /veh VCAN (11757783_s_at) / RFU DDX43 (11728927_at) / Fold change /veh DDX43 (11728927_at) / RFU KRT8 (11758188_x_at) / Fold change /veh KRT8 (11758188_x_at) / RFU NKD1 (11759106_at) / Fold change /veh NKD1 (11759106_at) / RFU SRD5A1 (11742802_a_at) / Fold change /veh SRD5A1 (11742802_a_at) / RFU TPSAB1 /// TPSB2 (11721975_s_at) / Fold change /veh TPSAB1 /// TPSB2 (11721975_s_at) / RFU GSTM3 (11746129_a_at) / Fold change /veh GSTM3 (11746129_a_at) / RFU IL23R (11737362_x_at) / Fold change /veh IL23R (11737362_x_at) / RFU TMEM51 (11727254_a_at) / Fold change /veh TMEM51 (11727254_a_at) / RFU PIWIL2 (11732686_x_at) / Fold change /veh PIWIL2 (11732686_x_at) / RFU ORM1 (11744905_x_at) / Fold change /veh ORM1 (11744905_x_at) / RFU CCDC152 (11743942_at) / Fold change /veh CCDC152 (11743942_at) / RFU ECM1 (11717891_a_at) / Fold change /veh ECM1 (11717891_a_at) / RFU IL23R (11748794_a_at) / Fold change /veh IL23R (11748794_a_at) / RFU TNFAIP8L3 (11732012_x_at) / Fold change /veh TNFAIP8L3 (11732012_x_at) / RFU MBOAT4 (11741988_at) / Fold change /veh MBOAT4 (11741988_at) / RFU 11764193_at / Fold change /veh 11764193_at / RFU TMEM53 (11763286_at) / Fold change /veh TMEM53 (11763286_at) / RFU MAGEB2 (11727129_at) / Fold change /veh MAGEB2 (11727129_at) / RFU TMEM200A (11744735_a_at) / Fold change /veh TMEM200A (11744735_a_at) / RFU CCDC152 (11751479_a_at) / Fold change /veh CCDC152 (11751479_a_at) / RFU FAM211A (11726209_a_at) / Fold change /veh FAM211A (11726209_a_at) / RFU RGS16 (11746705_a_at) / Fold change /veh RGS16 (11746705_a_at) / RFU VCAN (11755009_s_at) / Fold change /veh VCAN (11755009_s_at) / RFU RHOB (11743442_s_at) / Fold change /veh RHOB (11743442_s_at) / RFU RGS16 (11720943_a_at) / Fold change /veh RGS16 (11720943_a_at) / RFU RGS16 (11720944_at) / Fold change /veh RGS16 (11720944_at) / RFU, VPS4B / Fold change vs veh, VPS4B / RFU, CREB1 / Fold change vs veh, CREB1 / RFU, DNAJC13 / Fold change vs veh, DNAJC13 / RFU, GNAQ / Fold change vs veh, GNAQ / RFU, CDK5R1 / Fold change vs veh, CDK5R1 / RFU, ZRANB3 / Fold change vs veh, ZRANB3 / RFU, CUL4A / Fold change vs veh, CUL4A / RFU, CCNY / Fold change vs veh, CCNY / RFU, UFL1 / Fold change vs veh, UFL1 / RFU, COG3 / Fold change vs veh, COG3 / RFU, DIAPH2 / Fold change vs veh, DIAPH2 / RFU, SKA2 / Fold change vs veh, SKA2 / RFU, AFF3 / Fold change vs veh, AFF3 / RFU, LMF1 / Fold change vs veh, LMF1 / RFU, IPO11 / Fold change vs veh, IPO11 / RFU, DFFB / Fold change vs veh, DFFB / RFU, FOXP1 / Fold change vs veh, FOXP1 / RFU, CARD8 / Fold change vs veh, CARD8 / RFU, STRN3 / Fold change vs veh, STRN3 / RFU, ADK / Fold change vs veh, ADK / RFU, RASSF2 / Fold change vs veh, RASSF2 / RFU, WIPF1 / Fold change vs veh, WIPF1 / RFU, LARP1B / Fold change vs veh, LARP1B / RFU, RASA1 / Fold change vs veh, RASA1 / RFU, RB1 / Fold change vs veh, RB1 / RFU, PPFIA1 / Fold change vs veh, PPFIA1 / RFU, MAT2A / Fold change vs veh, MAT2A / RFU, CCT5 / Fold change vs veh, CCT5 / RFU, WDR92 / Fold change vs veh, WDR92 / RFU, CUX1 / Fold change vs veh, CUX1 / RFU, TTC7A / Fold change vs veh, TTC7A / RFU, TMEM135 / Fold change vs veh, TMEM135 / RFU, DEPTOR / Fold change vs veh, DEPTOR / RFU, CPM / Fold change vs veh, CPM / RFU, DNAJB6 / Fold change vs veh, DNAJB6 / RFU, CACNA2D3 / Fold change vs veh, CACNA2D3 / RFU, DTX4 / Fold change vs veh, DTX4 / RFU, TFCP2 / Fold change vs veh, TFCP2 / RFU, GMCL1 /// GMCL1P1 / Fold change vs veh, GMCL1 /// GMCL1P1 / RFU, AEBP2 / Fold change vs veh, AEBP2 / RFU, SNHG1 /// SNORD22 /// SNORD25 /// SNORD26 /// SNORD27 /// SNORD28 /// SNORD29 /// SNORD31 / Fold change vs veh, SNHG1 /// SNORD22 /// SNORD25 /// SNORD26 /// SNORD27 /// SNORD28 /// SNORD29 /// SNORD31 / Fold change (Aza/veh), C12orf56 (ProbeSet 11735607_a_at) / Fold change (ACY-1035/veh), C12orf56 (ProbeSet 11735607_a_at) / Fold change (Aza/veh), FGFR1OP (ProbeSet 11751329_s_at) / Fold change (ACY-1035/veh), FGFR1OP (ProbeSet 11751329_s_at) / Fold change (Aza/veh), VPS36 (ProbeSet 11739960_a_at) / Fold change (ACY-1035/veh), VPS36 (ProbeSet 11739960_a_at) / RFU SYPL1 (11715823_x_at) / Fold change /veh SYPL1 (11715823_x_at) / RFU IGFBP7 (11715501_s_at) / Fold change /veh IGFBP7 (11715501_s_at) / RFU REEP3 (11722064_at) / Fold change /veh REEP3 (11722064_at) / RFU IGLL1 (11728026_x_at) / Fold change /veh IGLL1 (11728026_x_at): dose or concentration left out as unconfirmed
Conditions: ProbeSet 11725902_s_at; LIST D

SMILES: Nc1ccc(-c2cccs2)cc1NC(=O)c1ccc2c(c1)cc(C1CC1)n2CCN1CCOCC1 [ACY-1035]
- Fold change vs veh, TMEM135: 0.99
